Here are results for 13 compounds from ChEMBL document CHEMBL1201862, “PubChem BioAssay data set” (2004).

Some test systems named below: EKVX; OVCAR-5; COLO 205; ACHN; OVCAR-8; UACC-257; UO-31; SK-OV-3; SK-MEL-5; HCT-15; SN12C; MOLT-4; NCI-H226; HOP-92; CAKI-1; HL-60; NCI-H460; RXF 393.
Common to all, as to assay: DTP human tumour cell line panel, 48 h

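Dose response: 5 concentrations. Exposure: 48 h. Format: 96-well plates. Endpoint: linear interpolation; highest concentration if not reached. GI50: concentration for 50% inhibition of growth.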 The source made the active and inactive calls. Cut-off read from the data, not from the text of the source: active = GI50 up to about 1.1 µM and inactive = higher. A value given as a limit tells only on which side of the number the result lay.

In general, GI50 refers to the concentration giving 50% growth inhibition. In the case of `COc1cc(Cc2cc(OC)c(OC)c(OC)c2)ccc1O`, the GI50 with EKVX is 27 µM (inactive); with OVCAR-5 it was > 100 µM (inactive); in the experiment with COLO 205, 77.8 µM (inactive); in the experiment on ACHN, 40.9 µM (inactive); with OVCAR-8, 25.5 µM (inactive); in the experiment with UACC-257 it was 22.4 µM (inactive). Moreover, the GI50 with UO-31 is 52.6 µM (inactive); in the experiment with SK-OV-3 it was 39.4 µM (inactive); in the experiment with SK-MEL-5, 3.85 µM (inactive); in the experiment with HCT-15 it was 3.28 µM; in the experiment on SN12C, 21.8 µM (inactive); in the experiment with MOLT-4, 4.27 µM (inactive). The GI50 was 93.1 µM (inactive) in the experiment on NCI-H226, 19.3 µM (inactive) in the experiment with HOP-92, 62.1 µM (inactive) with CAKI-1 and 2.27 µM (inactive) in the experiment with HL-60.

Consider `O=c1cccccc1NCCCCCCNc1cccccc1=O`, for which the GI50 in the experiment on EKVX, with OVCAR-5, in the experiment on COLO 205, in the experiment on ACHN, in the experiment on OVCAR-8 and in the experiment with UACC-257 was > 100 µM (inactive) throughout. Moreover, the GI50 in the experiment with UO-31 was > 100 µM (inactive); in the experiment on SK-OV-3, > 100 µM (inactive); in the experiment with SK-MEL-5 it was > 100 µM (inactive); in the experiment on HCT-15, above 100 µM; in the experiment with SN12C, > 100 µM (inactive); in the experiment on MOLT-4, > 100 µM (inactive). Also, the GI50 with NCI-H226, in the experiment on NCI-H460, in the experiment with CAKI-1 and with HL-60 was > 100 µM (inactive) throughout.

`O=NN1CCCS1(=O)=O`: the GI50 in the experiment on EKVX, in the experiment on OVCAR-5, in the experiment on COLO 205, in the experiment on ACHN, in the experiment with OVCAR-8 and in the experiment with UACC-257 was > 100 µM (inactive) each time. Moreover, the GI50 was 95.1 µM (inactive) in the experiment with UO-31; > 100 µM (inactive) in the experiment on SK-OV-3; > 100 µM (inactive) in the experiment on SK-MEL-5; above 100 µM in the experiment on HCT-15; > 100 µM (inactive) in the experiment on SN12C; > 100 µM (inactive) in the experiment on MOLT-4. Moreover, the GI50 with NCI-H226, in the experiment with NCI-H460, in the experiment with RXF 393, in the experiment on CAKI-1 and with HL-60 was > 100 µM (inactive) throughout.

For the compound `CCOC(=O)C1=C(NC)OCC1=O`, the GI50 with EKVX, with OVCAR-5, in the experiment with COLO 205, in the experiment on ACHN, with OVCAR-8 and in the experiment on UACC-257 was > 100 µM (inactive) throughout. The GI50 in the experiment on UO-31 was > 100 µM (inactive); in the experiment with SK-OV-3, > 100 µM (inactive); in the experiment with SK-MEL-5, > 100 µM (inactive); with HCT-15 it was above 100 µM; with SN12C, > 100 µM (inactive); with NCI-H226, > 100 µM (inactive). Moreover, the GI50 in the experiment with HOP-92, in the experiment on NCI-H460, in the experiment on RXF 393, with CAKI-1 and with HL-60 was > 100 µM (inactive) in each case.

Turning to `O=C(Cc1ccccc1)NN1C(=O)C(Cl)C1c1ccc(Cl)cc1` (configuration not stated), the GI50 with EKVX was > 100 µM (inactive); in the experiment with OVCAR-5 it was > 100 µM (inactive); in the experiment on COLO 205, > 100 µM (inactive); in the experiment with ACHN it was > 100 µM (inactive); in the experiment with OVCAR-8, > 100 µM (inactive); in the experiment with UACC-257, 86.3 µM (inactive). Moreover, the GI50 in the experiment with UO-31 was 62.4 µM (inactive); with SK-OV-3, > 100 µM (inactive); in the experiment with SK-MEL-5, > 100 µM (inactive); in the experiment with HCT-15, above 100 µM; in the experiment with SN12C, > 100 µM (inactive); in the experiment with MOLT-4, 30.6 µM (inactive). Moreover, the GI50 in the experiment on NCI-H226 is > 100 µM (inactive); in the experiment on NCI-H460 it was > 100 µM (inactive); in the experiment on RXF 393, > 100 µM (inactive); in the experiment with CAKI-1, > 100 µM (inactive); with HL-60 it was 92.7 µM (inactive).

As for `CC(=O)OCCOCNC(=S)N/N=C(\C)c1cnc2ccccc2n1`, the GI50 was 8.53 µM (inactive) in the experiment on EKVX; 7.91 µM (inactive) in the experiment on OVCAR-5; 20.1 µM (inactive) with COLO 205; 11.5 µM (inactive) in the experiment with ACHN; 33.9 µM (inactive) in the experiment on OVCAR-8; 48.4 µM (inactive) with UACC-257. Moreover, the GI50 in the experiment on UO-31 is 41.5 µM (inactive); in the experiment on SK-OV-3, 33.3 µM (inactive); in the experiment with SK-MEL-5 it was 25.1 µM (inactive); with HCT-15 it was 34 µM; with SN12C, 50.4 µM (inactive); in the experiment with MOLT-4, 28.6 µM (inactive). Besides, the GI50 was 36.4 µM (inactive) in the experiment on NCI-H226, 27 µM (inactive) with NCI-H460, 33 µM (inactive) in the experiment on RXF 393 and 15.9 µM (inactive) in the experiment on HL-60.

As for `O=c1cc[nH]c2c1ccc1ncccc12`, the GI50 with EKVX, in the experiment with OVCAR-5, with COLO 205, with ACHN, with OVCAR-8 and in the experiment on UACC-257 was > 100 µM (inactive) each time. The GI50 in the experiment on UO-31 was > 100 µM (inactive); in the experiment with SK-OV-3, > 100 µM (inactive); in the experiment on SK-MEL-5, > 100 µM (inactive); in the experiment with HCT-15, above 100 µM; in the experiment on SN12C, > 100 µM (inactive); in the experiment with MOLT-4 it was > 100 µM (inactive). The GI50 with NCI-H226, with NCI-H460, with RXF 393 and in the experiment with HL-60 was > 100 µM (inactive) in each case.

For the compound `O=C1c2ccccc2CCCCCCCCCCC12OCCCO2`, the GI50 was 26.7 µM (inactive) in the experiment with OVCAR-5; 19.2 µM (inactive) with COLO 205; 52.4 µM (inactive) with ACHN; 87.3 µM (inactive) in the experiment with OVCAR-8; 24 µM (inactive) with UACC-257; 79.3 µM (inactive) with UO-31. Moreover, the GI50 in the experiment with SK-OV-3 was 80.5 µM (inactive); with SK-MEL-5, 35.6 µM (inactive); in the experiment with HCT-15, 25.8 µM; with SN12C, 55 µM (inactive); in the experiment on MOLT-4 it was 17.7 µM (inactive); in the experiment on NCI-H226, 35.6 µM (inactive). For the same compound, the GI50 with NCI-H460 is 26.4 µM (inactive); in the experiment on RXF 393, 10.6 µM (inactive); with CAKI-1, 25.5 µM (inactive); in the experiment on HL-60, 16 µM (inactive).

`CC(=O)C(CN(C)C)C(c1ccccc1)c1c(O)c2ccccc2oc1=O` (configuration not stated): the GI50 in the experiment with EKVX, in the experiment with OVCAR-5, in the experiment with COLO 205, with ACHN, with OVCAR-8 and with UACC-257 was > 100 µM (inactive) in each case. For the same compound, the GI50 in the experiment on SK-OV-3 was > 100 µM (inactive); with SK-MEL-5, > 100 µM (inactive); in the experiment on HCT-15, above 100 µM; in the experiment with SN12C, > 100 µM (inactive); with MOLT-4, > 100 µM (inactive); in the experiment with NCI-H226, > 100 µM (inactive). Further, the GI50 is 49.9 µM (inactive) in the experiment on HOP-92; > 100 µM (inactive) with NCI-H460; > 100 µM (inactive) in the experiment on RXF 393; > 100 µM (inactive) in the experiment on CAKI-1; > 100 µM (inactive) in the experiment with HL-60.

With `O=c1cc2ccccc2nn1Cc1ccccc1Cl`, the GI50 in the experiment with EKVX, in the experiment with OVCAR-5, in the experiment with COLO 205, in the experiment on ACHN, with OVCAR-8 and in the experiment on UACC-257 was > 100 µM (inactive) each time. Further, the GI50 with UO-31 is 29.5 µM (inactive); in the experiment with SK-OV-3, > 100 µM (inactive); with SK-MEL-5 it was > 100 µM (inactive); in the experiment with HCT-15, above 100 µM; with SN12C it was > 100 µM (inactive); in the experiment with NCI-H226, > 100 µM (inactive). In addition, the GI50 in the experiment with HOP-92 is 71.9 µM (inactive); with NCI-H460, > 100 µM (inactive); with CAKI-1, > 100 µM (inactive).

For `O=C(CC(=O)c1ccccc1)CC(O)(c1ccccc1)c1ccccc1`, the GI50 in the experiment on EKVX was 6.1 µM (inactive); with OVCAR-5, 11.3 µM (inactive); with COLO 205, 10.5 µM (inactive); in the experiment on ACHN, 6.27 µM (inactive); with OVCAR-8, 5.26 µM (inactive); with UACC-257, 13.2 µM (inactive). Moreover, the GI50 was 5.7 µM (inactive) in the experiment on UO-31; 9.31 µM (inactive) in the experiment with SK-OV-3; 3.52 µM (inactive) with SK-MEL-5; 4.89 µM with HCT-15; 4.99 µM (inactive) in the experiment with SN12C; 1.88 µM (inactive) in the experiment with MOLT-4. Moreover, the GI50 in the experiment with NCI-H226 is 3.87 µM (inactive); in the experiment on HOP-92, 5.21 µM (inactive); in the experiment with NCI-H460, 2.33 µM (inactive); with CAKI-1, 2.9 µM (inactive); in the experiment on HL-60, 2.01 µM (inactive).

With `CN(C)CC1(Cc2ccccc2)CC/C(=C\c2ccccc2)C1=O` (configuration not stated), the GI50 with OVCAR-5 is 40.6 µM (inactive); in the experiment with COLO 205 it was 32.9 µM (inactive); in the experiment with ACHN, 50.7 µM (inactive); in the experiment with OVCAR-8, 34.5 µM (inactive); with UACC-257, 32.4 µM (inactive); in the experiment on UO-31, 47.8 µM (inactive). Also, the GI50 is 22.5 µM (inactive) in the experiment with SK-MEL-5; 19.8 µM in the experiment on HCT-15; 69.2 µM (inactive) with SN12C; 24 µM (inactive) in the experiment with MOLT-4; 92.9 µM (inactive) in the experiment on NCI-H226; 51.4 µM (inactive) in the experiment with HOP-92. Moreover, the GI50 was 28.2 µM (inactive) in the experiment with NCI-H460, 35.6 µM (inactive) with RXF 393, 49.1 µM (inactive) in the experiment on CAKI-1 and 20.4 µM (inactive) in the experiment on HL-60.

Take `CC(C)Cc1ccc(C(C)C(=O)N2CCN(/C=C/c3ccccc3)CC2)cc1` (configuration not stated): the GI50 in the experiment on EKVX is 15.8 µM (inactive); in the experiment with OVCAR-5 it was 13.9 µM (inactive); in the experiment on COLO 205, 15.4 µM (inactive); in the experiment with OVCAR-8 it was 14.5 µM (inactive); in the experiment on UACC-257, 17.3 µM (inactive); with UO-31, 10.5 µM (inactive). Also, the GI50 in the experiment on SK-OV-3 is 16.6 µM (inactive); with SK-MEL-5, 12.1 µM (inactive); in the experiment with HCT-15, 13.8 µM; with SN12C, 15.8 µM (inactive); with MOLT-4, 6.15 µM (inactive); with NCI-H226, 12.6 µM (inactive). Further, the GI50 in the experiment on HOP-92 was 13.1 µM (inactive); with NCI-H460, 16.1 µM (inactive); with RXF 393 it was 14.1 µM (inactive); in the experiment with HL-60, 3.94 µM (inactive).
